One molecule from EP0352248A1, “Nucleoside derivatives” (priority 1988, dated 1990) can be followed below.

Molecules are shown by their SMILES.

Common to all, as to format: cell-based
The subject of one data set is H9 cells. Description: Cellular toxicity, inhibition of cell multiplication, H9 cells. The following applies: conc. 200 µM, cell number after 48 h. As to the method: (§1) Test II Cellular toxicity
H9 cells, 2x10⁷ cells per plate, are incubated in RPMI-1640 medium containing 10 % fetal calf serum, 70 mg/l penicillin, 100 mg/l streptomycin and 10 mM hepes, in absence or presence of test compounds. The number of cells per plate is determined after 48 h. Cells incubated in the absence of test compounds then underwent two cell division cycles.
F5000 cells, which are human embryo cells, 1x10⁵ cells per plate, are incubated in Eagle's minimal essential medium, supplemented with Earle's salts, non-essential amino acids, 10 % fetal calf serum, 10 mM hepes, 70 mg/l penicillin and 100 mg/l streptomycin, in absence or presence of test compounds. The number of cells per plate is determined after 48 h. Cells incubated in the absence of test compounds underwent one cell division cycle. […]

The next data set deals with HIV (HTLV-IIIB). Description: Effect on HIV in H9 cells (frequency of HIV antigen containing cells, immunofluorescence). The conditions noted are these: Human immunodeficiency virus 1; H9 cells exposed to HIV (HTLV-IIIB), 6-7 days; read-out: Concentration (µM) for 50 % inhibition (IC₅₀) of human immuno deficiency virus multiplication in cell culture. As to the method:
Test I Effect of compounds of the formula I on HIV in H9 cells
Materials and methods: HIV infection of H9 cells
H9 cells, 10⁵ cells per well on a 24 well plate, suspended in 2 ml RPMI-medium containing 10 % fetal calf serum, 100 µg/ml penicillin, 10 µg/ml streptomycin sulfate and 2 µg/ml polybrene are exposed to HIV (HTLV-IIIB) and different concentrations of the test compounds. The plates are incubated at 37°C in 5 % CO₂ for 6-7 days. The contents in each well is then homogenized with a pipette and transferred to a centrifuge tube. After centrifugation for 10 min at 1500 rpm the supernatant is removed and the cell pellet is analyzed by fixing in methanol on glass plates. Human HIV positive serum diluted 1:80 or 1:160 is added and incubated for 30 min at 37°C. The plate is then washed with phosphate-buffered saline (PBS) containing Ca²⁺ and Mg²⁺. Sheep anti-human conjugate (FITC) is added and after a new incubation the plate is again washed with PBS. Contrast straining is done with Evans blue and after drying the frequency of HIV antigen containing cells is determined in a microscope.

In a further data set the test system is F5000 cells. Description: Cellular toxicity, inhibition of cell multiplication, F5000 cells. The following applies: F5000 cells (human embryo cells), conc. 100 µM, cell number after 48 h. As to the method: as §1
F5000 cells, which are human embryo cells, 1x10⁵ cells per plate, are incubated in Eagle's minimal essential medium, supplemented with Earle's salts, non-essential amino acids, 10 % fetal calf serum, 10 mM hepes, 70 mg/l penicillin and 100 mg/l streptomycin, in absence or presence of test compounds. The number of cells per plate is determined after 48 h. Cells incubated in the absence of test compounds underwent one cell division cycle. The results are given as % inhibition of cell multiplication when the concentration of the compound is 100 µM or 250 µM.

Take `Nc1ccn(C2CC[C@H](CO)O2)c(=O)n1` (stereo partly drawn) [VSB 815, 1-(2,3-Dideoxy-alpha,beta-L-ribofuranosyl)-cytosine]: in the data set with H9 cells, the “% Inhibition H9” value is recorded as 35 (200) %. Also, the IC50 in the data set on HIV (HTLV-IIIB) is below 1 µM. Also, in the data set with F5000 cells, the “% Inhibition F5000” value is on record as 55 (100) %.
